Paper PMC8831599, “Defining molecular glues with a dual-nanobody cannabidiol sensor” (Nature Communications, 2022)

Experiments:
TIR1 = target: T1, TIR1 (Arabidopsis thaliana, UniProt Q570C0); experiment: ITC; BLI and AlphaScreen with IAA7 degron; type: binding
T1 construct: TIR1-ASK1 co-expressed complex; with ASK1

[1] = target: T2, CA14 (anchor binder nanobody); experiment: ITC; […] Å crystal structure of the CA14-CBD-DB21 ternary complex; type: binding
T2 construct: nanobody CA14, tag-free; CA14 alone in ITC

T1 sequence (Q39255 whole entry): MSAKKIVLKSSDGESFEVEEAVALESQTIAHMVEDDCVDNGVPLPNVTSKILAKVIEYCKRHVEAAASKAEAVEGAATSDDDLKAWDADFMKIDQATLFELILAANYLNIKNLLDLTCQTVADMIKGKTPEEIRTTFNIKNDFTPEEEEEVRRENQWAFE
T1 sequence (Q570C0 whole entry): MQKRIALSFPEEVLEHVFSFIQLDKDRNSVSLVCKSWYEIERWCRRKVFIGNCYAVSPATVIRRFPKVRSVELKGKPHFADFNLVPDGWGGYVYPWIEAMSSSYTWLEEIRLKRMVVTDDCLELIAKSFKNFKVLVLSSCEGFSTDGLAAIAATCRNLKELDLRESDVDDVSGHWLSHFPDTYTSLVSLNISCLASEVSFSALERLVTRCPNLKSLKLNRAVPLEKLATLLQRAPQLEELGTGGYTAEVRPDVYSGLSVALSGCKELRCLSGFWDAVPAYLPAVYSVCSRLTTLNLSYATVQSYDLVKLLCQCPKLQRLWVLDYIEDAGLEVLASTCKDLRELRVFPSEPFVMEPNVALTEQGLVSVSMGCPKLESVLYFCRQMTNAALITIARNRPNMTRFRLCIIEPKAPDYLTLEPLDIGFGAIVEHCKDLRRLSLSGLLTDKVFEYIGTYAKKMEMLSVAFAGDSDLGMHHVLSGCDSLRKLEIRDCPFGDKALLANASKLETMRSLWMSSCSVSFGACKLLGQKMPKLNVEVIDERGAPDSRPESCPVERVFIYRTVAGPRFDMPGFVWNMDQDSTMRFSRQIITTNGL

O=C(O)Cc1c[nH]c2ccccc12 [auxin]
Kd (TIR1): 13.4 µM

C=C(C)[C@@H]1CCC(C)=C[C@H]1c1c(O)cc(CCCCC)cc1O [CBD, cannabidiol]
Kd [1]: 2200 nM
